Tests used:
[1] = Thermal denaturation followed by fluorescence ratio, two-state fit; type: physicochemical; details: for Tm/K: thermal stability of the 183C acrylodan conjugate mutant
Procedure: (§1) The titration series were mixed with GGBP183C⋅acrylodan or BD_SM4⋅acrylodan conjugates in 384-well microtiter plates. The temperature dependence of the titrations was measured in a real-time PCR machine (Roche LightCycler 480) by determining the ratio of fluorescence emission intensities at 488, 510, and 580 nm (excitation at 440 nm) as a function of temperature (290-370K). Temperatures were advanced in 1K steps. At each temperature data was collected for at 1-second intervals for 60 seconds at which point the signal had relaxed to a steady value associated with the new temperature. Collection times were adjusted to minimize photobleaching (which was not detectable under these experimental conditions). Data reduction software was developed to convert these observations into time-independent datasets that record fluorescence as a function of temperature for each well and associate wells with their concentration of titrant and additive. Management tools were developed to maintain a database of titrations and their analyses.
Fits of these equation systems to experimental observations such as shown in FIG. 5 require good initial estimates of the parameters. These can then be refined using multi-dimensional conjugate gradient methods. To obtain local fits for protein thermostability in the absence of ligand we solve
This gives excellent fits (FIG. 7).

[2] = Galactose affinities of the mutants that bind glucose (Roche LightCycler); type: binding; details: trueKd at 25° C., 183C acrylodan conjugates, read-out: Kd^298K(galactose)/mM
Excerpt: (§2) Analysis of mutant affinity values: Isothermal glucose titrations were extracted from the fluorescent landscape or emission datasets as described above. Monochromatic emission intensities Iλ. (these intensities correspond to a bandpass intensity recorded with a physical filter in the case of the Roche LightCycler) were fit to
(§3) where ^apoIλ2 ^apoIλ2 and ^satIλ2^satIλ2 are the emission intensities of the monochromatic signal at wavelength λ2λ2 of the ligand-free and ligand-bound protein, respectively. Equation 28 illustrates that the ^appKd ^appKd values obtained by fits of 25 to ratiometric signals are wavelength dependent. To obtain wavelength-independent values needed for comparison of mutant proteins, it is necessary to simultaneously fit ^appKd ^appKd to the ratiometric signal and ^trueKd ^trueKd to the two monochromatic signals. For a given isothermal titration, values for ^appKd ^appKd and ^trueKd ^trueKd were obtained using a non-linear fitting algorithm in which these two parameters were simultaneously fit to the three experimental binding isotherms using equations 23 and 27, with the two monochromatic isotherms sharing the same ^trueKd ^trueKd value. Three separate pairs of linear ^apoβ ^apoβ and ^satβ ^satβ baselines were fit in this procedure. TABLES 1-5 record the ^trueKd ^trueKd values at 25° C., obtained by analysis of Roche LightCycler data in 488 nm and 510 nm channels. The uncertainty of the fit (‘error’) was obtained using a boot-strapping technique in which 37% of the data was replicated. In all cases, no binding was recorded if one of ^appKd ^appKd or ^trueKd ^trueKd exceeded 200 mM. The glucose constant of GGBP183 C-acrylodan is 4.21±0.08 mM at 25° C.
The galactose affinities for those mutants that bind glucose were also determined.

[3] = Isothermal glucose titrations from fluorescent landscapes (Roche LightCycler); type: binding
Procedure: as §1
The response of acrylodan to glucose binding was separated from the effects of thermal denaturation by extracting binding isotherms within the temperature range where the apo-protein remains >99% folded (T<320 K; FIG. 7). Within this temperature range, binding isotherms were constructed by extracting fluorescence values across different wells, each containing different glucose concentrations, at a given temperature, and fit individually with high accuracy to isotherms (FIG. 8):
using linear baselines which vary individually in accordance with the tilt of the S, S1, and S2 baseplanes that correspond the saturated glucose complex. The individually fit Kd(T) values were converted into ΔGb(T) and fit to the Gibbs-Helmholtz equation 9 (FIG. 9).
as §2, §3

[4] = Fluorescence emission response to ligand binding; design: key to Response Intensity^c: +, increases in response to ligand; —: decreases; 0, no change in the glucose titration; key to Response Shape^b: m, monochromatic; d, dichromatic (i.e. spectral shape changes); 0, no change in the glucose titration; details: for Response Intensity^c / Response Shape^b: glucose titration, Nanodrop3300, room temperature
Procedure: as §1
(§4) In addition to the Roche LightCycler, which has a limited choice of emission wavelengths, data for selected mutants also was measured at room temperature on a Nanodrop3300 (Thermo Scientific) fluorimeter, which records full emission spectra. Emission intensities at a particular wavelength were extracted by integration of the spectral emission intensities over a 20-nm interval centered on that wavelength.

[5] = Galactose titration at room temperature on Nanodrop3300 fluorimeter; type: binding; details: ^e noisy data
Procedure: as §4
(§5) Signals S (either single-wavelength emission intensities, LT, or ratios of intensities at two wavelengths, Rig) were fit to ligand-binding isotherms:
(§6) where [L] is the ligand concentration and Kd the dissociation constant corresponding to ^appKd or ^trueKd for fits to R12 (weighted by the relative contributions of ^satβ at the two different wavelengths) and Iλ respectively. For a given isothermal titration, values for ^appKd and ^true Kd were obtained using a non-linear fitting algorithm in which these two parameters were simultaneously fit to the three experimental binding isotherms using equations 29 and 30, with the two monochromatic isotherms sharing the same ^trueKd value. Three separate pairs of ^apoβ and ^satβ were fit in this procedure.

[6] = Glucose titration at room temperature on Nanodrop3300 fluorimeter; type: binding
Procedure: as §4, §5, §6

[7] = Isothermal glucose titrations from fluorescent landscapes (Roche LightCycler); type: binding; remark: listed apart in the source
[8] = Ca2+ binding followed through thermal stability shifts in the absence of glucose; details: 37° C.
Excerpt: GGBP binds Ca^2+ at a location remote from glucose (FIG. 1). The binding of Ca^2+ was investigated in the absence of glucose (FIG. 12). […] Nevertheless, Ca^2+ binding can be followed through its effect on protein stability (FIG. 13). […] However, at elevated concentrations, this stabilization effect levels off and addition of Ca^2+ becomes destabilizing. […] These effects can be modeled accurately by a fit of the ligand- and temperature-dependent free energy of stability for Ca^2+ (Judge et al. Diabetes Technol. Thera. 2011, 13, 309-317; Layton et al. Biochemistry 2010, 49, 10831-10841). The individual terms are cast in terms of T and [Ca^2+] using equations 4-9. However, rather than fitting fluorescent landscape data directly using 1, Tm and ΔHu, values are extracted at each Ca^2+ concentration using 16 and 17, and fit to the equation system by determining the root of 19 to obtain the calculated Tm value.

[9] = trueKd at 25° C., 183C acrylodan conjugates, LightCycler 488 nm and 510 nm channels, ± = bootstrap uncertainty of fit, read-out: Kd^298K(glucose)/mM
[10] = apparent, ratiometric signal at the listed wavelength pair, read-out: Affinities (mM)^d Galactose ^appKd
[11] = from monochromatic signals, read-out: Affinities (mM)^d Galactose ^trueKd
[12] = apparent, ratiometric signal at the listed wavelength pair, read-out: Affinities (mM)^d Glucose aPPKa
[13] = from monochromatic signals, read-out: Affinities (mM)^d Glucose trueKa
[14] = 37° C., mutations in GGBP183C⋅acrylodan, read-out: glucose Kd values at 37° C.

| Kd [2] [mM] | Kd [3, 9] [mM] | effect of glucose binding on fluorescence ([4]; 488/580 ratio) | Response Intensity^c [4] | Response Shape^b [4] | Kd [5, 10] [mM] | Kd [5, 11] [mM] | Kd [6, 12] [mM] | Kd [6, 13] [mM] | Kd [7, 14] [mM] | Kd ([3]; 25° C., read-out: glucose constant) [mM] | Kd ([8]; read-out: Ca^2+ affinity in the native state at a single site) [µM] | Kd ([8]; read-out: calculated Kd for Ca2+, single folded state site) [µM] | Kd ([8]; read-out: calculated Kd for Ca2+, single, medium-affinity denatured state) [µM] | Kd ([8]; read-out: calculated Kd for Ca2+, two, low-affinity denatured states) [µM] | Kd ([7]; 37° C. (310K), fit of equation 18, read-out: Kd, glucose binding isotherm) [mM] | Substance | Tm/K [1] [K] | apoTm ([1]; apo-protein, two-state fit) [K] | ΔapoHu ([1]; apo-protein, two-state fit) [kcal/mol] | decrease in the affinity for glucose compared to the wild-type protein [3] |
| --- | --- | --- | --- | --- | --- | --- | --- | --- | --- | --- | --- | --- | --- | --- | --- | --- | --- | --- | --- | --- |
| 7.5 ± 1 | 5.9 ± 1 | increases the 488/580 ratio | — | d | 4.5 | 6.6 | 0.14 | 0.23 | ~13 |  |  |  |  |  |  | A155N: GGBP 183C acrylodan conjugate with mutation A155N | 320 |  |  |  |
|  |  |  | — | d | 31 | 24 | 6 | 4.4 |  | 4.21 ± 0.08 | ~0.01 | 0.0108 | 370 | 8800 | 6.58 ± 0.03 | GGBP183C⋅acrylodan: E. coli glucose-galactose binding protein W183C mutant conjugated to acrylodan; parent sensor |  | 322.2 | 197.3 | 10,000 fold |
| 12.7 ± 15 | 0.34 ± 0.01 |  | — | d | 6.8 | 5.4 | 0.38 | 0.36 | ~0.5 |  |  |  |  |  |  | E149S: GGBP 183C acrylodan conjugate with mutation E149S | 320 |  |  |  |
| 10.8 ± 0.4 | 0.46 ± 0.01 |  | — | d | 2.3 | 2.1 | 0.6 | 0.43 | ~0.5 |  |  |  |  |  |  | E149Q: GGBP 183C acrylodan conjugate with mutation E149Q | 322 |  |  |  |
| 40.2 ± 1.3 | 1.44 ± 0.04 |  | — | d | 34 | 27 | 1.5 | 1.2 | ~0.5 |  |  |  |  |  |  | E149K: GGBP 183C acrylodan conjugate with mutation E149K | 321 |  |  |  |

— US20220411847A1, “GLUCOSE/GALACTOSE BIOSENSORS AND METHODS OF USING SAME” (Duke University, priority 2015, published 2022)
